The values below come from the kinase profiling compilation of Christmann-Franck et al. (2016).

What all share (assay): KINOMEscan competition binding
Conditions in all cases: compound 10.0 µM

Test [1] deals with ABL1 (human), P00519 [Y253F].
For test [2], the system named is EGFR (human), P00533 [747-751 del / S ins].
The subject of test [3] is EGFR (human), P00533 [752-759 del].
In test [4] the test system is EGFR (human), P00533 [T790M/L858R].
Test [5] relates to EGFR (human), P00533 [T790M].
In test [6] the test system is FLT3 (human), P36888 [D835H].
Test [7] deals with FLT3 (human), P36888 [R834Q].
For test [8], the system named is KIT (human), P10721 [L576P].
Chain of KIT (human), P10721 [L576P] (P10721 whole entry L576P, looked up): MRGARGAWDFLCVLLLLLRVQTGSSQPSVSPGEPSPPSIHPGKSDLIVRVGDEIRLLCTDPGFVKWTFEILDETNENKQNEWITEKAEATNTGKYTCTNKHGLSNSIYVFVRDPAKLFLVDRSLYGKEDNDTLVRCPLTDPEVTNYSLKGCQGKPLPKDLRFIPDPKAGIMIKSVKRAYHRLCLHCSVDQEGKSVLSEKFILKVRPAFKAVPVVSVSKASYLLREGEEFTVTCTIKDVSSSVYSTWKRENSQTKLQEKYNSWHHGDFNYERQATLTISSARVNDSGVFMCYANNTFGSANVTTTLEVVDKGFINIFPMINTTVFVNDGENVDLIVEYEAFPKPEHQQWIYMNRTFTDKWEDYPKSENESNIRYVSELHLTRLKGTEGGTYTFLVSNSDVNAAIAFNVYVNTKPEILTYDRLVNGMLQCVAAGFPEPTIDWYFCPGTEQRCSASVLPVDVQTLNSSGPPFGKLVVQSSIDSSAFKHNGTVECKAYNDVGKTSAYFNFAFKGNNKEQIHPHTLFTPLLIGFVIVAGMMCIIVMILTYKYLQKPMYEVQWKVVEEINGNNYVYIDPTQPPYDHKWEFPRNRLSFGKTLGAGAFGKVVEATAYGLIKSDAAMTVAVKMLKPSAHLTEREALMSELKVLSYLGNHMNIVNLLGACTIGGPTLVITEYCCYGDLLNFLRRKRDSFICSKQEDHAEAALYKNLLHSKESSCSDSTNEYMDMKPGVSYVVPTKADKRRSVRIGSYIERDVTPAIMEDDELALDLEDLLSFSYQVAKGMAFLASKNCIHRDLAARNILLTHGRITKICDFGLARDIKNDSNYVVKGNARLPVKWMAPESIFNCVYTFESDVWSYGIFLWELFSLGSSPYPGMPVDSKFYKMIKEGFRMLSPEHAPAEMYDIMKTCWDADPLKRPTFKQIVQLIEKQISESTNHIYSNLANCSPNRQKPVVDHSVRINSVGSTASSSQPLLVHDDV
The test system of test [9] is KIT (human), P10721 [V559D/V654A].
Chain of KIT (human), P10721 [V559D/V654A] (P10721 whole entry V559D/V654A, looked up): as the sequence (P10721 whole entry L576P, looked up) above, with V559D, P576L, V654A counted along it
For test [10], the system named is MET (human), P08581 [Y1235D].
Test [11] relates to RET (human), P07949 [M918T].
Chain of RET (human), P07949 [M918T] (P07949 whole entry M918T, looked up): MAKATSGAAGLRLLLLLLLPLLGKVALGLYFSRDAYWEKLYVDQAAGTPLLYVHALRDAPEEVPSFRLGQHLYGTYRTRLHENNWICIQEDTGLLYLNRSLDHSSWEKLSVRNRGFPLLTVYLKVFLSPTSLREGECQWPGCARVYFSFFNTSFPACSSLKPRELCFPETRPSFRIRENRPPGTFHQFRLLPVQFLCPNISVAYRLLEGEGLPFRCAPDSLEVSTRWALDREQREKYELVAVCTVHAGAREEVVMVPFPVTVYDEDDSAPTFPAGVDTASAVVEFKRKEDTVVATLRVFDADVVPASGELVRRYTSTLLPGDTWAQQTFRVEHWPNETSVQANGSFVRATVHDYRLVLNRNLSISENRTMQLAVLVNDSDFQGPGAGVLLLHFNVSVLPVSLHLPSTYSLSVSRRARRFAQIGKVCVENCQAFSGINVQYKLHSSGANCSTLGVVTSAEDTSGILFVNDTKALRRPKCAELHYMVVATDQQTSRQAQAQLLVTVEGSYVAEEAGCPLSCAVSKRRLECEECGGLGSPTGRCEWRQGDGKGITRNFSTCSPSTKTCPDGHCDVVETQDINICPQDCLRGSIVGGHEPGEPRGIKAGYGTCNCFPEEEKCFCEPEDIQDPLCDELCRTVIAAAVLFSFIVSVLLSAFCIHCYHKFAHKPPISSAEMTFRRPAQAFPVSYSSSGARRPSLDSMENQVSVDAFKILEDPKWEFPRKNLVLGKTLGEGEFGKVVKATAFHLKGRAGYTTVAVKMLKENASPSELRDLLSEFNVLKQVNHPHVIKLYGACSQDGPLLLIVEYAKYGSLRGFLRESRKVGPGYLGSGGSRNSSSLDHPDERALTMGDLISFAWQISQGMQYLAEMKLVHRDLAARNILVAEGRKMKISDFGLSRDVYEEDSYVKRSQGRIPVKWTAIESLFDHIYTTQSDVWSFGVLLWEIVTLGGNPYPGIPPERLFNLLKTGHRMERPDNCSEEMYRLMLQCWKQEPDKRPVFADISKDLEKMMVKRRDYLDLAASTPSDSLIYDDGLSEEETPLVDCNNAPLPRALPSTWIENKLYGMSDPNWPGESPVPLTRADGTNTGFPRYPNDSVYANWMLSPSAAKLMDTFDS
In test [12] the test system is RET (human), P07949 [V804M].
Chain of RET (human), P07949 [V804M] (P07949 whole entry V804M, looked up): as the sequence (P07949 whole entry M918T, looked up) above, with V804M, T918M counted along it

SMILES strings stand for the structures.

Regarding `N#Cc1cc(-c2ccnc(Nc3ccc(-n4cnc(-c5cccnc5)n4)cc3)n2)cc(N2CCOCC2)c1`, the kinase still bound, per cent of control was 84% in [1]; 79% in test [2]; 87% in [3]; 97% in test [4]; 86% in test [5]; 21% in test [6]. Further, the kinase still bound, per cent of control in [7] amounted to 58%; in test [8], 17%; in test [9], 42%; in test [10], 14%; in test [11], 100%; in test [12] it was 100%.
As for `CCN1CCN(Cc2ccc(Nc3ncc4c(n3)N(C)c3ccccc3C(=O)N4C)cc2C(F)(F)F)CC1`, the kinase still bound, per cent of control in test [1] is 0.1%; in test [2] it was 95%; in test [3] it was 98%; in test [4], 90%; in test [5], 100%; in [6], 8.8%. The kinase still bound, per cent of control in test [7] came to 69%; in [8], 46%; in test [9] it was 100%; in test [10] it was 86%; in test [11], 0.6%; in test [12], 1.2%.
For `CCCS(=O)(=O)Nc1ccc(F)c(C(=O)c2c[nH]c3ncc(Cl)cc23)c1F`, the kinase still bound, per cent of control in test [1] was 27%; in [2], 75%; in [3], 73%; in test [4], 90%; in [5] it was 48%; in test [6], 43%. Moreover, the kinase still bound, per cent of control in test [7] was determined as 100%; in test [8], 6.4%; in test [9], 19%; in test [10] it was 100%; in [11], 40%; in test [12] it was 89%.
`CN(C)C/C=C/C(=O)Nc1cccc(Nc2ncc3c(n2)N(C)c2ccccc2C(=O)N3C)c1`: the kinase still bound, per cent of control came out at 0% in [1]; 77% in test [2]; 74% in test [3]; 86% in [4]; 43% in test [5]; 5.3% in test [6]. For the same compound, the kinase still bound, per cent of control in test [7] turned out to be 37%; in test [8], 33%; in test [9] it was 96%; in test [10], 77%; in [11] it was 0.55%; in test [12], 0.15%.
On to `COc1cc(N2CCN(C)CC2)ccc1Nc1nc(N)c(C(=O)c2c(Cl)cccc2Cl)s1`, for which the kinase still bound, per cent of control in test [1] stood at 98%; in test [2] it was 91%; in [3], 89%; in test [4], 100%; in test [5], 100%; in test [6], 99%. Further, the kinase still bound, per cent of control in [7] was found to be 100%; in [8], 100%; in test [9], 94%; in [10] it was 100%; in [11] it was 100%; in test [12], 100%.
Turning to `O=C(NC1CC1)c1cccc(-c2ccc3c(NC(=O)C4CC4)n[nH]c3c2)c1`, the kinase still bound, per cent of control amounted to 60% in test [1]; 74% in test [2]; 72% in test [3]; 100% in test [4]; 100% in test [5]; 47% in test [6]. The kinase still bound, per cent of control in [7] was 67%; in [8], 51%; in test [9] it was 90%; in [10], 74%; in [11] it was 71%; in test [12], 84%.
Consider `C=CC(=O)Nc1ccc(C(=O)c2sc(Nc3ccc(N4CCN(C)CC4)cc3OC)nc2N)cc1`, for which the kinase still bound, per cent of control in test [1] is 97%; in [2], 41%; in [3], 53%; in test [4] it was 68%; in test [5] it was 27%; in [6], 59%. The kinase still bound, per cent of control came out at 100% in test [7]; 81% in test [8]; 100% in test [9]; 100% in test [10]; 100% in test [11]; 100% in test [12].
For the compound `C=CC(=O)Nc1cc(NC(=O)c2ccc(C)c(NC(=O)c3ccno3)c2)cc(C(F)(F)F)c1`, the kinase still bound, per cent of control in test [1] was determined as 63%; in [2] it was 100%; in [3] it was 100%; in [4] it was 97%; in [5], 100%; in test [6], 100%. For the same compound, the kinase still bound, per cent of control in test [7] came to 100%; in test [8], 2.3%; in test [9], 23%; in test [10] it was 100%; in test [11] it was 100%; in test [12], 100%.
In the case of `CNC(=O)Nc1ccc(-c2nc(N3CC4CCC(C3)O4)c3cnn(C4CCC5(CC4)OCCO5)c3n2)cc1`, the kinase still bound, per cent of control in test [1] was found to be 99%; in test [2], 50%; in [3], 55%; in [4] it was 100%; in test [5], 68%; in [6], 82%. Further, the kinase still bound, per cent of control in test [7] came out at 79%; in test [8], 85%; in [9], 100%; in [10], 24%; in [11] it was 73%; in test [12] it was 100%.
As for `Nc1ccc(-c2ccc3ncc4ccc(=O)n(-c5cccc(C(F)(F)F)c5)c4c3c2)cn1`, the kinase still bound, per cent of control was 87% in [1]; 67% in [2]; 70% in test [3]; 100% in [4]; 100% in [5]; 16% in [6]. Besides, the kinase still bound, per cent of control was 32% in test [7]; 51% in [8]; 100% in test [9]; 98% in test [10]; 79% in test [11]; 100% in test [12].
In the case of `Cc1ccc(NC(=O)c2cccc(C(C)(C)C#N)c2)cc1Nc1ccc2ncn(C)c(=O)c2c1`, the kinase still bound, per cent of control turned out to be 1.4% in test [1]; 14% in [2]; 17% in test [3]; 99% in test [4]; 79% in [5]; 60% in test [6]. Besides, the kinase still bound, per cent of control is 100% in test [7]; 0.55% in test [8]; 1.2% in test [9]; 100% in test [10]; 0.4% in [11]; 0.15% in test [12].
As for `Cc1cc([C@@H](C)Nc2ccccc2C(=O)O)c2nc(N3CCOCC3)cc(=O)n2c1`, the kinase still bound, per cent of control in test [1] came out at 100%; in test [2], 100%; in test [3] it was 100%; in [4], 99%; in [5] it was 100%; in [6], 27%. Moreover, the kinase still bound, per cent of control was 94% in test [7]; 95% in test [8]; 96% in test [9]; 78% in [10]; 100% in test [11]; 100% in test [12].
